Source: patent US4156724A, “N-acylamino-alpha-arylacetamido cephalosporins and antibacterial compositions and methods containing them” (Sumitomo Chemical Company, Limited, priority 1974, dated 1979)
≈ marks a conversion by molar mass, not a printed value.

Legend:
Assay type in all cases: cell-based
Proteus vulgaris HX 19 = test: Minimum Inhibitory Concentration, Proteus vulgaris HX 19; conditions: Proteus vulgaris HX 19; for MIC: HX19, read-out: Minimum Inhibitory Concentration
Method: (§1) anti-microbial activity tests were carried out on the compounds obtained in the Examples.

[1] = tested on: Staphylococcus aureus 209 P; test: Minimum Inhibitory Concentration, Staphylococcus aureus 209 P; conditions: Staphylococcus aureus 209 P; for MIC: read-out: Minimum Inhibitory Concentration
Method: as §1

[2] = tested on: Klebsiella pneumoniae 602; test: Minimum Inhibitory Concentration, Klebsiella pneumoniae 602; conditions: for MIC: Klebsiella pneumoniae, 602, Klebsiella pneumoniae 602, read-out: Minimum Inhibitory Concentration
Method: as §1

Escherichia coli NIHJ = test: Minimum Inhibitory Concentration, Escherichia coli NIHJ; conditions: Escherichia coli NIHJ; for MIC: read-out: Minimum Inhibitory Concentration
Method: as §1

Serratia No. 72 = test: Minimum Inhibitory Concentration, Serratia No. 72
Method: as §1

[3] = tested on: Pseudomonas aeruginosa 104; test: Minimum Inhibitory Concentration, Pseudomonas aeruginosa 104; conditions: Pseudomonas aeruginosa 104; for MIC: read-out: Minimum Inhibitory Concentration
Method: as §1

[4] = tested on: Enterobacter aerogeneus No. 75; test: Minimum Inhibitory Concentration, Enterobacter aerogeneus No. 75; conditions: Enterobacter aerogeneus No. 75; for MIC: read-out: Minimum Inhibitory Concentration
Method: as §1

[5] = tested on: Staphylococcus aureus FS 289; test: Minimum Inhibitory Concentration, Staphylococcus aureus FS 289; conditions: Staphylococcus aureus FS 289, strain resistant to penicillin; for MIC: FS289, read-out: Minimum Inhibitory Concentration
Method: as §1
*Staphylococcus aureus FS 289: strain resistant to penicillin

| Structure (SMILES) | MIC (Proteus vulgaris HX 19) [µg/mL] | MIC [1] [µg/mL] | MIC [2] [µg/mL] | MIC (Escherichia coli NIHJ) [µg/mL] | MIC (Serratia No. 72) [µg/mL] | MIC [3] [µg/mL] | MIC [4] [µg/mL] | MIC [5] [µg/mL] | Minimum Inhibitory Concentration (Proteus vulgaris HX 19) [µg/mL] | Minimum Inhibitory Concentration [1] [µg/mL] | Minimum Inhibitory Concentration ([2]; Klebsiella pneumoniae 602) [µg/mL] | Minimum Inhibitory Concentration (Escherichia coli NIHJ) [µg/mL] | Minimum Inhibitory Concentration (Serratia No. 72) [µg/mL] | Minimum Inhibitory Concentration [3] [µg/mL] | Minimum Inhibitory Concentration [4] [µg/mL] | Minimum Inhibitory Concentration [5] [µg/mL] |
| --- | --- | --- | --- | --- | --- | --- | --- | --- | --- | --- | --- | --- | --- | --- | --- | --- |
| COc1ccc2ncc(C(=O)NC(C(=O)NC3C(=O)N4C(C(=O)O)=C(CSc5cnn[nH]5)CSC34)c3ccc(CO)cc3)c(O)c2n1 (stereo not shown) [Example 106] | 0.2 (≈ 0.295 µM) | 1.56 (≈ 2.3 µM) | 1.56 (≈ 2.3 µM) | 3.13 (≈ 4.61 µM) | 12.5 (≈ 18.4 µM) | 6.25 (≈ 9.21 µM) | 6.25 (≈ 9.21 µM) | 6.25 (≈ 9.21 µM) |  |  |  |  |  |  |  |  |
| CC(=O)OCC1=C(C(=O)O)N2C(=O)C(NC(=O)C(NC(=O)c3cccnc3O)c3ccc(O)cc3)C2SC1 (stereo not shown) [Example 115] | 0.78 (≈ 1.44 µM) | 0.39 (≈ 0.719 µM) | 25 (≈ 46.1 µM) | 12.5 (≈ 23 µM) | > 200 | 12.5 (≈ 23 µM) | 25 (≈ 46.1 µM) | 6.25 (≈ 11.5 µM) |  |  |  |  |  |  |  |  |
| NC(=O)Nc1ccc([C@@H](NC(=O)c2cnccc2O)C(=O)N[C@@H]2C(=O)N3C(C(=O)O)=C(CSc4cnn[nH]4)CS[C@H]23)cc1 [Example 14] | 0.1 (≈ 0.16 µM) | 0.39 (≈ 0.623 µM) | 6.25 (≈ 9.99 µM) | 6.25 (≈ 9.99 µM) | 50 (≈ 79.9 µM) | 6.25 (≈ 9.99 µM) | 12.5 (≈ 20 µM) | 6.25 (≈ 9.99 µM) |  |  |  |  |  |  |  |  |
| CC(=O)OCC1=C(C(=O)O)N2C(=O)C(NC(=O)C(NC(=O)c3cnc4nc(C)ccc4c3O)c3cccc(N)c3)C2SC1 (stereo not shown) [Example 62] | 0.39 (≈ 0.643 µM) | 1.56 (≈ 2.57 µM) | 3.13 (≈ 5.16 µM) | 12.5 (≈ 20.6 µM) | 100 (≈ 165 µM) | 6.25 (≈ 10.3 µM) | 25 (≈ 41.2 µM) | 6.25 (≈ 10.3 µM) |  |  |  |  |  |  |  |  |
| Nc1cccc(C(NC(=O)c2ccnnc2O)C(=O)NC2C(=O)N3C(C(=O)O)=C(CSc4ccc(O)nn4)CSC23)c1 (stereo not shown) [Example 87] | 0.78 (≈ 1.28 µM) | 0.78 (≈ 1.28 µM) | 6.25 (≈ 10.2 µM) | 12.5 (≈ 20.5 µM) | 50 (≈ 81.9 µM) | 12.5 (≈ 20.5 µM) | 12.5 (≈ 20.5 µM) | 6.25 (≈ 10.2 µM) |  |  |  |  |  |  |  |  |
| Cn1nnnc1SCC1=C(C(=O)O)N2C(=O)C(NC(=O)C(NC(=O)c3cnc4cccnc4c3O)c3ccc(O)c(O)c3)C2SC1 (stereo not shown) [Example 167] | 0.2 (≈ 0.3 µM) | 1.56 (≈ 2.34 µM) | 1.56 (≈ 2.34 µM) | 1.56 (≈ 2.34 µM) | 12.5 (≈ 18.8 µM) | 3.13 (≈ 4.7 µM) | 3.13 (≈ 4.7 µM) | 6.25 (≈ 9.39 µM) |  |  |  |  |  |  |  |  |
| CC(=O)OCC1=C(C(=O)[O-])N2C(=O)C(NC(=O)C(NC(=O)c3cnc4cccnc4c3O)c3ccc(O)c(F)c3)C2SC1.[Na+] (stereo not shown) [Example 145] |  |  |  |  |  |  |  |  | 0.39 | 0.78 | 3.13 | 3.13 | 100 | 6.25 | 12.5 | 6.25 |
| COc1ccc2ncc(C(=O)NC(C(=O)NC3C(=O)N4C(C(=O)O)=C(CSc5nnc(CO)s5)CSC34)c3ccc(O)cc3)c(O)c2n1 (stereo not shown) [Example 165] | 0.2 (≈ 0.281 µM) | 0.78 (≈ 1.1 µM) | 3.13 (≈ 4.4 µM) | 3.13 (≈ 4.4 µM) | 12.5 (≈ 17.6 µM) | 3.13 (≈ 4.4 µM) | 6.25 (≈ 8.78 µM) | 6.25 (≈ 8.78 µM) |  |  |  |  |  |  |  |  |
| CC(=O)OCC1=C(C(=O)O)N2C(=O)C(NC(=O)C(NC(=O)c3ccnnc3O)c3ccc(N)cc3)C2SC1 (stereo not shown) [Example 58] | 0.2 (≈ 0.369 µM) | 0.39 (≈ 0.719 µM) | 12.5 (≈ 23 µM) | 12.5 (≈ 23 µM) | > 200 | 6.25 (≈ 11.5 µM) | 25 (≈ 46.1 µM) | 3.13 (≈ 5.77 µM) |  |  |  |  |  |  |  |  |
| CSc1cnc2c(O)c(C(=O)NC(C(=O)NC3C(=O)N4C(C(=O)O)=C(CSc5nnnn5C)CSC34)c3cccc(N)c3)cnc2n1 (stereo not shown) [Example 70] | 0.1 (≈ 0.144 µM) | 1.56 (≈ 2.24 µM) | 3.13 (≈ 4.5 µM) | 3.13 (≈ 4.5 µM) | 12.5 (≈ 18 µM) | 6.25 (≈ 8.98 µM) | 6.25 (≈ 8.98 µM) | 6.25 (≈ 8.98 µM) |  |  |  |  |  |  |  |  |
| Cn1nnnc1SCC1=C(C(=O)O)N2C(=O)C(NC(=O)[C@H](NC(=O)c3cnccc3O)c3ccc(O)cc3)C2SC1 (stereo partly drawn) [Example 126, 7-[D-α-(4-Hydroxypyridine-3-carbonamido)-α-p-hydroxyphenylacetamido]-3-(1-methyltetrazol-5-yl)thiomethyl-3-cephem-4-carboxylic acid] | 0.2 (≈ 0.334 µM) | 0.39 (≈ 0.651 µM) | 12.5 (≈ 20.9 µM) | 6.25 (≈ 10.4 µM) | 100 (≈ 167 µM) | 6.25 (≈ 10.4 µM) | 12.5 (≈ 20.9 µM) | 6.25 (≈ 10.4 µM) |  |  |  |  |  |  |  |  |
| COc1ccc2ncc(C(=O)N[C@@H](C(=O)N[C@@H]3C(=O)N4C(C(=O)O)=C(CSc5nnnn5C)CS[C@H]34)c3cccc(NC(N)=O)c3)c(O)c2n1 [Example 39] | 0.1 (≈ 0.139 µM) | 0.78 (≈ 1.08 µM) | 1.56 (≈ 2.16 µM) | 1.56 (≈ 2.16 µM) | 12.5 (≈ 17.3 µM) | 3.13 (≈ 4.34 µM) | 3.13 (≈ 4.34 µM) | 6.25 (≈ 8.66 µM) |  |  |  |  |  |  |  |  |
| Cn1nnnc1SCC1=C(C(=O)O)N2C(=O)[C@@H](NC(=O)[C@H](NC(=O)c3ccnnc3O)c3ccc(NC(N)=O)cc3)[C@H]2SC1 [Example 17] | 0.1 (≈ 0.156 µM) | 0.39 (≈ 0.608 µM) | 3.13 (≈ 4.88 µM) | 6.25 (≈ 9.74 µM) | 50 (≈ 77.9 µM) | 6.25 (≈ 9.74 µM) | 12.5 (≈ 19.5 µM) | 6.25 (≈ 9.74 µM) |  |  |  |  |  |  |  |  |
| Cc1nnc(SCC2=C(C(=O)O)N3C(=O)C(NC(=O)[C@H](NC(=O)c4cnc5nc(C)c(C)nc5c4O)c4ccc(O)cc4)C3SC2)s1 (stereo partly shown) [Example 148] | 1.56 (≈ 2.25 µM) | 1.56 (≈ 2.25 µM) | 3.13 (≈ 4.51 µM) | 3.13 (≈ 4.51 µM) | 25 (≈ 36 µM) | 3.13 (≈ 4.51 µM) | 6.25 (≈ 9 µM) | 12.5 (≈ 18 µM) |  |  |  |  |  |  |  |  |
| Cn1nnnc1SCC1=C(C(=O)O)N2C(=O)C(NC(=O)C(NC(=O)c3cnc4cncnc4c3O)c3ccc(CO)cc3)C2SC1 (stereo not shown) [Example 108] | 0.2 (≈ 0.301 µM) | 1.56 (≈ 2.35 µM) | 3.13 (≈ 4.71 µM) | 3.13 (≈ 4.71 µM) | 25 (≈ 37.6 µM) | 6.25 (≈ 9.4 µM) | 6.25 (≈ 9.4 µM) | 12.5 (≈ 18.8 µM) |  |  |  |  |  |  |  |  |
| Cn1nnnc1SCC1=C(C(=O)O)N2C(=O)C(NC(=O)C(NC(=O)c3cnc4nc(N5CCNCC5)ncc4c3O)c3ccc(O)cc3)C2SC1 (stereo not shown) [Example 163] | 0.39 (≈ 0.531 µM) | 1.56 (≈ 2.12 µM) | 6.25 (≈ 8.51 µM) | 12.5 (≈ 17 µM) | 50 (≈ 68 µM) | 6.25 (≈ 8.51 µM) | 25 (≈ 34 µM) | 12.5 (≈ 17 µM) |  |  |  |  |  |  |  |  |
| O=C(O)C1=C(CSc2nnc(CO)s2)CSC2C(NC(=O)C(NC(=O)c3cnccc3O)c3ccc(O)cc3)C(=O)N12 (stereo not shown) [Example 176] | 0.2 (≈ 0.317 µM) | 0.39 (≈ 0.618 µM) | 6.25 (≈ 9.91 µM) | 6.25 (≈ 9.91 µM) | 50 (≈ 79.3 µM) | 12.5 (≈ 19.8 µM) | 12.5 (≈ 19.8 µM) | 6.25 (≈ 9.91 µM) |  |  |  |  |  |  |  |  |
| O=C(O)C1=C(CSc2cnn[nH]2)CSC2C(NC(=O)C(NC(=O)c3cnccc3O)c3ccc(O)c(O)c3)C(=O)N12 (stereo not shown) [Example 186] | 0.78 (≈ 1.3 µM) | 0.78 (≈ 1.3 µM) | 12.5 (≈ 20.8 µM) | 6.25 (≈ 10.4 µM) | 50 (≈ 83.4 µM) | 12.5 (≈ 20.8 µM) | 12.5 (≈ 20.8 µM) | 6.25 (≈ 10.4 µM) |  |  |  |  |  |  |  |  |
| CC(=O)OCC1=C(C(=O)O)N2C(=O)C(NC(=O)C(NC(=O)c3cnccc3O)c3cccc(O)c3)C2SC1 (stereo not shown) [Example 114] | 0.39 (≈ 0.719 µM) | 0.39 (≈ 0.719 µM) | 12.5 (≈ 23 µM) | 12.5 (≈ 23 µM) | > 200 | 6.25 (≈ 11.5 µM) | 25 (≈ 46.1 µM) | 6.25 (≈ 11.5 µM) |  |  |  |  |  |  |  |  |
| CC(=O)OCC1=C(C(=O)O)N2C(=O)C(NC(=O)C(NC(=O)c3cnc4cccnc4c3O)c3cccc(N)c3)C2SC1 (stereo not shown) [Example 53] | 0.39 (≈ 0.658 µM) | 1.56 (≈ 2.63 µM) | 1.56 (≈ 2.63 µM) | 3.13 (≈ 5.28 µM) | 50 (≈ 84.4 µM) | 6.25 (≈ 10.5 µM) | 6.25 (≈ 10.5 µM) | 6.25 (≈ 10.5 µM) |  |  |  |  |  |  |  |  |
